Counter-ions that a name gives are not always drawn.
biological target: T1, protein farnesyltransferase (Rattus norvegicus, UniProt Q02293+Q04631); assay: Inhibition of farnesyltransferase (scintillation proximity assay, rat brain enzyme, biotin-K Ras B fragment substrate); format: biochemical; settings: 1 × 10^-5 M (Table 1)
T1 construct: The enzyme is purified according to Reiss, Y., et al., Cell, 62: 81-88 (1990), utilizing steps one through three; from tissue; host or cells: rat brain
Outline: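 Enzyme from rat brain, partly purified (steps one to three), assayed by SPA kit using 0.1 mM final biotin-K Ras B peptide as prenyl acceptor rather than biotin-lamin. Activity given as percent inhibition.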

T1 sequence (Q02293 whole entry, the tested form may be a part, one chain of several): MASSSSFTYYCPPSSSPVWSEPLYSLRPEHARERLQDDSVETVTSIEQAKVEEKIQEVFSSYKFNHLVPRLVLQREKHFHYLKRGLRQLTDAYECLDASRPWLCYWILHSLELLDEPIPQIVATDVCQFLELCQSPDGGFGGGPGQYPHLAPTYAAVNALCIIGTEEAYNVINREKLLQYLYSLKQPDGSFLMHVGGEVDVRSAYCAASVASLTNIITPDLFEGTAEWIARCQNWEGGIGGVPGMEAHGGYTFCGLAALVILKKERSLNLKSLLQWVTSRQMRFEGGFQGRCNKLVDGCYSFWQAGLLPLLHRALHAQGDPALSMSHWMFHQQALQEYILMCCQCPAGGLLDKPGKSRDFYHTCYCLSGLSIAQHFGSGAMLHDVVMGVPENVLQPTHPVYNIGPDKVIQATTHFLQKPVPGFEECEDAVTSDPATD

Row | SMILES | % inhibition of farnesyltransferase at 1 × 10^-5 M
1 | CSCC[C@H](NC(=O)c1ccc(NC(=O)c2cccc(N(C)C)c2)cc1-c1ccccc1)C(=O)O [Example 752] | 58%
2 | CSCC[C@H](NC(=O)c1ccc(CNc2ccc(C(C)C)cc2)cc1-c1ccccc1)C(=O)O [Example 692] | 74%

same assay, conditions: 1 × 10^-6 M (Table 2)

Row | SMILES | % inhibition of farnesyltransferase at 1 × 10^-6 M
3 | CSCC[C@H](NC(=O)c1cc(Cc2ccccc2)c(COCc2ccccc2)cc1-c1ccccc1C)C(=O)O [Example 923] | 78%
4 | CSCC[C@H](NC(=O)c1ccc(COCc2ccccc2)cc1-c1ccccc1)C(=O)O [Example 575] | 70%
5 | CSCC[C@H](NC(=O)c1ccc(NC(=O)[C@@H]2CSCN2)cc1-c1ccccc1)C(=O)O [Example 165] | 74%
6 | CSCC[C@H](NC(=O)c1ccc(COCc2ccc(-c3ccc(F)cc3)o2)cc1-c1cccc2ccccc12)C(=O)[O-].[Li+] [Example 868] | 89%

same assay, conditions: 1 × 10^-7 M (Table 3)

Row | SMILES | % inhibition of farnesyltransferase at 1 × 10^-7 M
7 | CSCC[C@H](NC(=O)c1ccc(CSc2ccc(F)cc2)cc1-c1ccccc1C)C(=O)O [Example 740] | 94%
8 | CSCC[C@H](NC(=O)c1ccc(COCc2ccc(-c3ccc(C=O)cc3)o2)cc1-c1ccccc1C)C(=O)[O-].[Li+] [Example 448] | 92%
9 | CCCCS(=O)(=O)N(Cc1ccc(C(=O)N[C@@H](CCSC)C(=O)O)c(-c2ccccc2C)c1)[C@H](CSCC)CC1CCCCC1 [Example 950] | 71%
10 | CSCC[C@H](NC(=O)c1ccc(COCc2ccc(-c3ccc(C(C)=O)cc3)o2)cc1-c1ccccc1C)C(=O)[O-].[Li+] [Example 449] | 91%
11 | CSCC[C@H](NC(=O)c1ccc(CN[C@H](CCCC(C)C)CC2CCCCC2)cc1-c1ccccc1C)C(=O)O [Example 527] | 97%
12 | CSCC[C@H](NC(=O)c1ccc(CN(CCC2CCCCC2)C(C)=O)cc1-c1ccccc1C)C(=O)[O-].[Li+] [Example 609] | 95%

same assay, conditions: 1 × 10^-8 M (Table 4)

Row | SMILES | % inhibition of farnesyltransferase at 1 × 10^-8 M
13 | CSCC[C@H](NC(=O)c1ccc(CSCc2ccccc2)cc1-c1ccccc1C)C(=O)NS(=O)(=O)c1ccc(C)cc1 [Example 586] | 90%
14 | CSCC[C@H](NC(=O)c1ccc(CN(CCC2CCCCC2)C(=O)c2ccccc2)cc1-c1ccccc1C)C(=O)O [Example 762] | 84%
15 | CSCC[C@H](NC(=O)c1ccc(COCc2ccccc2C(C)C)cc1-c1ccccc1C)C(=O)[O-].[Li+] [Example 938] | 61%

same assay, conditions: read-out: % inhibition at 0.1 μM (*); Table 6, * = 0.1 μM (footnote); title prints 0.1 mM

Row | SMILES | inhibition at 0.1 µM
16 | CSCC[C@H](NC(=O)c1ccc(CN2CCC[C@H]2COc2cc(F)cc(F)c2)cc1-c1ccccc1C)C(=O)O [Example 1115, N-[4-(2(S)-(3,5-difluorolphenoxy)methylpyffolidin-1-ylmethyl)-2-(2-methylphenyl)benzoyl]methionine] | 94%
17 | CCCCN(Cc1cc(F)cc(F)c1)OCc1ccc(C(=O)N[C@@H](CCSC)C(=O)O)c(-c2ccccc2C)c1 [Example 1176, N-[4-N-Butyl-N-(3,5-difluorobenzyl)aminooxymethyl-2-(2-methylphenyl)benzoyl]methionine lithium salt] | 97%
18 | CSCC[C@H](NC(=O)c1ccc(CP(C)(=O)CC2CCCCC2)cc1-c1ccccc1C)C(=O)O (stereo partly drawn) [Example 1212, N-[4-((Cylohexylmethyl)methyl(oxophosphinyl)methyl)-2-(2-methylphenyl)benzoyl]methionine] | 86%

same assay, conditions: read-out: % inhibition of farnesyltransferase at 1 × 10^-6 M; 1 × 10^-6 M (Table 2)

Row | SMILES | inhibition at 1 µM
19 | CSCC[C@H](NC(=O)c1ccc(CN(C(C)C)C2(CC3CCCCC3)CCCC2)cc1-c1ccccc1C)C(=O)O [Example 344] | 95%
20 | Cc1ccccc1-c1cc(CN(C2CC2)C2(Cc3ccccc3)CCC2)ccc1C(=O)N[C@@H](CCS(C)(=O)=O)C(=O)O [Example 333] | 99%
21 | CSCC[C@H](NC(=O)c1ccc(/C=C/CCc2ccccc2)cc1-c1ccccc1C)C(=O)O [Example 472, N-[4-(4-phenylbut-1-enyl)-2-(2-methylphenyl)benzoyl]methionine] | 97%

From US6221865A, “Inhibitors of protein isoprenyl transferases” (priority 1998, dated 2001)
